Laboratory results from ChEMBL document CHEMBL3132833, “3,4,2-Trimethoxy-trans-stilbene a potent CYP1B1 inhibitor” (Medchemcomm, 2014).
pIC50: −log10 of the molar value. In brackets after ≈: the same amount, converted by molar mass.

What was measured:
[1] = molecular target: T1, Cytochrome P450 1B1 (Homo sapiens, UniProt Q16678); experiment: Inhibition of human recombinant CYP1B1 after 15 mins by 7-ethoxyresorufin-O-deethylation-based spectrofluorimetry
T1 sequence (Q16678 whole entry): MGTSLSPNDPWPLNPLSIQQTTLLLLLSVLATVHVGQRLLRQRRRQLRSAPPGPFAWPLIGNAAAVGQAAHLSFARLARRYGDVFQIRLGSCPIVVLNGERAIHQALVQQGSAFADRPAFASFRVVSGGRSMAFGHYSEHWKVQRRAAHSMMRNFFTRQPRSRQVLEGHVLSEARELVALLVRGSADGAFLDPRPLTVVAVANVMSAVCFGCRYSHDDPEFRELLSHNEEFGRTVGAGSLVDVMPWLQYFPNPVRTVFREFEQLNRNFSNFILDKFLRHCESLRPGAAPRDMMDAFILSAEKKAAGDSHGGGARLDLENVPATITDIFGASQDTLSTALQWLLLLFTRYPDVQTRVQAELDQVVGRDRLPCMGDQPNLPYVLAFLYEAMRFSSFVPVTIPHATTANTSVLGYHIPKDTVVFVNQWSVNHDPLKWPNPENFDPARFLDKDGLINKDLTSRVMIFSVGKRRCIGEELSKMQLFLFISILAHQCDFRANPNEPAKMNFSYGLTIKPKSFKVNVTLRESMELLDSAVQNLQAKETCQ

[2] = molecular target: T2, Cytochrome P450 1A1 (Homo sapiens, UniProt P04798); experiment: Inhibition of human recombinant CYP1A1 after 15 mins by 7-ethoxyresorufin-O-deethylation-based spectrofluorimetry
T2 sequence (P04798 whole entry): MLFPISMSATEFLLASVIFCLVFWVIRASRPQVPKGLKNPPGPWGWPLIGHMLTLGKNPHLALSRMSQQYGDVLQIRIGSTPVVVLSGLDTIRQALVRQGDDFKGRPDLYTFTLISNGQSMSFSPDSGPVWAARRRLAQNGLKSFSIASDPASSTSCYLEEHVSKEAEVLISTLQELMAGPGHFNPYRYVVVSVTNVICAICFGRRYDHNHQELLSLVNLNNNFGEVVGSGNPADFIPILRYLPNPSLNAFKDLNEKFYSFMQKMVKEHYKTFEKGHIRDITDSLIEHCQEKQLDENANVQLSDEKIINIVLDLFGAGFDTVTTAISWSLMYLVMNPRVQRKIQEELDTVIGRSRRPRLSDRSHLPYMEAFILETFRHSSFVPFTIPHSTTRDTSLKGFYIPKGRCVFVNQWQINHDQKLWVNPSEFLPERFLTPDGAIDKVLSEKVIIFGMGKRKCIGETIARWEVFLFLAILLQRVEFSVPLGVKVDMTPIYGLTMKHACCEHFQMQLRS

[3] = species: Homo sapiens; experiment: Selectivity ratio of IC50 for human recombinant CYP1A2 to IC50 for human recombinant CYP1B1
[4] = molecular target: T3, Cytochrome P450 1A2 (Homo sapiens, UniProt P05177); experiment: Inhibition of human recombinant CYP1A2 after 15 mins by 7-ethoxyresorufin-O-deethylation-based spectrofluorimetry
T3 sequence (P05177 whole entry): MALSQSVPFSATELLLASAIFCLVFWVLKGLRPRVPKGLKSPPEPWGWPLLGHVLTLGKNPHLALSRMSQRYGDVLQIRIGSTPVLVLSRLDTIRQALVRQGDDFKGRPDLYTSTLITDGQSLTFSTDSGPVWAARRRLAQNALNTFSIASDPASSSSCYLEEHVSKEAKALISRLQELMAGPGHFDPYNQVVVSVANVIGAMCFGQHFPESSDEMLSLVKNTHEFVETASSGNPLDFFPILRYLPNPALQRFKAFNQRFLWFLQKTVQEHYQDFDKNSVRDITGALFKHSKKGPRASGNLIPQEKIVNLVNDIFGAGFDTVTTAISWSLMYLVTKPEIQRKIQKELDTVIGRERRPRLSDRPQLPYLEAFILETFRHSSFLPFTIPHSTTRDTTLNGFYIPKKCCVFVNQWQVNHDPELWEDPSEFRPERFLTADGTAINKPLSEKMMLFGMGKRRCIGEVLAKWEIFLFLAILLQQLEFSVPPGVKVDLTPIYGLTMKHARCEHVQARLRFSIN

[5] = species: Homo sapiens; experiment: Selectivity ratio of IC50 for human recombinant CYP1A1 to IC50 for human recombinant CYP1B1
[6] = system: Col2; experiment: Cytotoxicity against human Col2 cells; type: functional, cell-based

| Compound | pIC50 [1] | pIC50 [2] | Ratio IC50 [3] | pIC50 [4] | Ratio IC50 [5] | IC50 [6] |
| --- | --- | --- | --- | --- | --- | --- |
| COc1cc(OC)c(/C=C/c2ccc(OC)c(OC)c2)c(OC)c1 | 6.52 | 6.57 | > 333 | < 4.00 | 0.9 | – |
| COc1cc(/C=C/c2ccc(OC)cc2OC)cc(OC)c1 | – | – | – | – | – | 0.8 µg/mL (≈ 2.66 µM) |
| COc1ccc(/C=C/c2ccc(OC)c(OC)c2OC)cc1OC | 5.38 | 5.29 | > 24 | < 4.00 | 1.2 | – |
| COc1ccc(/C=C/c2c(OC)cccc2OC)cc1OC | 6.51 | 6.64 | 7.5 | 5.64 | 0.74 | – |
| COc1ccc(/C=C/c2ccccc2)cc1OC | 6.52 | 6.36 | 20.1 | 5.22 | 1.5 | – |
| COc1ccc(/C=C/c2ccc(OC)c(OC)c2)c(OC)c1 | 6.68 | 6.29 | > 480 | < 4.00 | 2.4 | – |
| COc1ccc(/C=C/c2cc(O)cc(O)c2)cc1 [RESVERATROL 4'-METHYL ETHER] | 6.10 | – | – | – | – | – |
| COc1cc(/C=C/c2ccc(O)cc2)cc(OC)c1 [PTEROSTILBENE] | 5.85 | – | – | – | – | – |
| COc1cc(O)cc(/C=C/c2ccc(O)cc2)c1 | 5.68 | – | – | – | – | – |
| COc1ccccc1/C=C/c1ccc(OC)c(OC)c1 | 8.40 | 6.44 | 830 | 5.48 | 90 | – |
| COc1ccc(/C=C/c2cccc(OC)c2OC)cc1OC | 6.43 | 6.35 | 43.3 | 4.80 | 1.2 | – |
| COc1cc(OC)c(OC)cc1/C=C/c1ccc(OC)c(OC)c1 | 5.35 | 5.75 | > 22.5 | < 4.00 | 0.4 | – |
| COc1ccc(OC)c(/C=C/c2ccc(OC)c(OC)c2)c1 | 6.21 | 6.30 | > 160 | < 4.00 | 0.8 | – |
